The record followed here is EP2649989B1, “Method for preparing a solid dispersion, solid dispersion obtained thereby and use thereof” (King Saud University, priority 2012, dated 2013).

A short description of this data set: Solubility in water according to the Higuchi-Connor method. Format: physicochemical. The following applies: thermodynamic from solid; excess amount added to 10 ml of water, shaken on mechanical shaker for 48 hours, filtered, dissolved drug content; read-out: Indomethacin Solubility in water. The protocol:
The solubility of the drug (indomethacin) and solid dispersions of the drug according to the invention was examined in water according to the Higuchi-Connor method, see "Advances in Analytical Chemical Chemistry and Instrumentation" Vol. 4, New York, Wiley-Interscience 1965, page 117-212. An excess amount of drug, comparative solid dispersions and inventive solid dispersions was added to 10 ml of water, separately. The dispersions were shaken on mechanical shaker for 48 hours. Afterwards, the samples were withdrawn, filtered, diluted and analyzed to calculate the dissolved drug content.

Molecules are shown by their SMILES. In brackets after ≈: the same amount, converted by molar mass.

With `COc1ccc2c(c1)c(CC(=O)O)c(C)n2C(=O)c1ccc(Cl)cc1` [Indomethacin], the solubility at 48 h is 152 µg/mL (≈ 425 µM).

Broadly, the solubility is the dissolved amount per volume that the medium holds.
